The text below walks through data of patent publication US6899723B2, “Transcutaneous photodynamic treatment of targeted cells” (Light Sciences Corporation, priority 2001, dated 2005).

Values joined by “and” are separate entries in the source; they are usually repeats but may differ in a detail not shown here. Identical values can stand only once.

The subject of one series is normal skin tissue. Particulars: systemically administered, clinical use; cited from earlier work.
Series [1] relates to colon carcinoma tumor mass. Nature of the series: Photodynamic therapy of a solid tumor in a patient with implanted LED light source probes. The format is in vivo, human. The source says: A patient in the terminal phase of recurrent malignant colon cancer having undergone chemotherapy and irradiation therapy, presented with a protruding colon carcinoma tumor mass of approximately 500 grams and approximately 13 cm in diameter, which extended through the patient's dermis. Due to the advanced state of the patient's disease and due to the highly vascularized nature of this tumor mass, resection was not feasible. Further, this large tumor mass presented a significant amount of pain and discomfort to the patient, as well as greatly impairing the patient's ability to lie flat.
Six separate light source probes, each including a linear array of LEDs, were surgically implanted in this large human tumor using standard surgical procedures. A single dose of a photosensitizer agent (aminolevulinic acid (ALA) at 60 mg/kg) was provided by oral administration to the patient. Following a period of five hours to permit sufficient clearance of the photosensitizing agent from healthy tissues, light irradiation was administered. An intensity of about 25-30 mW of light from each light source probe (650 nm peak wavelength) was delivered to the tumor for 40 hours. […] The total fluence delivered to the tumor bed during this single extended duration treatment was in excess of 20,000 Joules.
The fluence rate employed in this Example represented about 150-180 mW/cm^2, with a total fluence more than 20,000 Joules.

Series [2] relates to transplanted human tumors. As to the kind of experiment: Low fluence PDT of established transplanted human tumors in nude mice. It counts as in vivo. As to conditions: for tumor necrosis: 660 nm light 30 microwatts per cm^2 for 72 hours, after 7 days. As for the experimental part:
(§1) A series of experiments were performed using nude mice growing transplanted human tumors. The mice are injected with various photosensitizers and the tumors illuminated with low fluence of only […] of light over a 72 hour time period. Extended tumor necrosis was observed.
(§2) Another two mice with established tumors were injected with 50-100 micrograms of Pheophorbide A into the lesion and exposed to 660 nm light (30 microwatts per cm^2) for 72 hours.
(§3) Two experimental mice were injected with epithelial cancer cells preincubated with 20 micrograms of Chlorin e6. […] Another two mice were injected with 100-150 micrograms of Chlorin e6 intratumorally and then exposed to 660 nm light (30 microwatts per cm^2) for 72 hours.
Five experimental mice bearing established tumors were injected with 1 mg Hpd intraperitoneally followed by exposure to 630 nm (peak) light ([…]) for 72 hours. […] There was no effect observed on control animals maintained in the absence of light (dark control mice).

For another series, the system named is epithelial cancer cells. Nature of the series: Low fluence PDT of nude mice injected with epithelial cancer cells preincubated with photosensitizer. The format is in vivo. Particulars: for tumor growth: 660 nm light about 48 hours, 30 microwatts per cm^2, after 1.5 months. As for the experimental part: as §1, §2, §3
The conditions of series [3]: cited from earlier work.
In the next series the test system is virus-infected T cells. As to conditions: Blood Cells 18:129-40 (1992); cited from earlier work.

`CCOC(=O)C1=Cc2c3nc(cc4nc(cc5[n-]c(cc6[n-]c2c(C)c6CC)c(C)c5CC)C(C)=C4CC)[C@@H](C)[C@]13CC.[Cl-].[Cl-].[Sn]` (racemic) [PURLYTIN]: in the series with normal skin tissue, the “duration of dermal photosensitivity” value was “at least several weeks”.

With `NCC(=O)CCC(=O)O` [ALA, aminolevulinic acid], the “reduction of tumor tissue (necrotic tissue debrided)” value in series [1] (over four weeks following PDT) was “approximately 500 grams”. For the same compound, in series [1] (patient, ALA 60 mg/kg oral, 650 nm light, after 40 hours of PDT, total fluence > 20,000 Joules), the “radius of extensive tumor necrosis from each of the light source probes” value is “greater than 5 cm”. Moreover, in series [1] (patient, ALA 60 mg/kg oral, after 40 hours of PDT), the “collateral damage to surrounding normal tissue” value is listed as “no collateral damage”.

As to `C=Cc1c(C)c2cc3nc(c(CC(=O)O)c4[nH]c(cc5nc(cc1[nH]2)C(C)=C5CC)c(C)c4C(=O)O)[C@@H](CCC(=O)O)[C@@H]3C` [Chlorin e6], the tumor necrosis result in series [2] (100-150 micrograms intratumorally) is listed as “Extensive tumor necrosis”. The tumor growth entry with epithelial cancer cells (cells preincubated with 20 micrograms) was “no tumor growth”. For the same compound, the “tumor growth, dark control” value in the series with epithelial cancer cells (cells preincubated with 20 micrograms, no light) was “developed a large tumor”.

With `Oc1cccc(-c2c3nc(c(-c4cccc(O)c4)c4ccc([nH]4)c(-c4cccc(O)c4)c4nc(c(-c5cccc(O)c5)c5ccc2[nH]5)CC4)C=C3)c1` [FOSCAN], in the series on normal skin tissue, the “duration of dermal photosensitivity” value was “at least several weeks”.

Turning to `CC(=O)[O-].CC(=O)[O-].CCc1c(CC)c2cc3nc(cnc4cc(OCCOCCOCCOC)c(OCCOCCOCCOC)cc4ncc4nc(cc1[n-]2)C(CCCO)=C4C)C(C)=C3CCCO.O.[Lu+3]` [Lutrin, lutetium texaphyrin], the “time tumor tissues retain the agent” value in series [3] (from time of administration) was 48 to 96 h and 24 to 96 h. Besides, in series [3] (in vivo), the “time at which a larger proportion clears from normal tissue” value was “about 8 hours”, the “time at which a proportion begins to clear from normal tissue” value is “about 3 hours” and the “time at which an even greater proportion clears from normal tissue” value is listed as “about 16 hours”.

With Pheophorbide A, in series [2] (50-100 micrograms into the lesion), the tumor necrosis result is “Extensive tumor necrosis”. Further, the “effect on tumor, dark control animals” value in series [2] (50-100 micrograms into the lesion, no light) is recorded as “no effect”. Besides, the tumor growth entry in the series with epithelial cancer cells (cells preincubated with 10 micrograms) is “no tumor growth”. In the series on epithelial cancer cells (cells preincubated with 10 micrograms, maintained in the absence of light), the “tumor growth, dark controls” value is on record as “developed a large tumor”.

On to benzoporphyrin derivatives [BPD], for which the “effect on T cell membrane after exposure to light” value in the series with virus-infected T cells was “holes developed in the T cell membrane and increased in size until the membrane completely decomposed”.

With sodium porfimer [PHOTOPHRIN], in the series with normal skin tissue, the “duration of dermal photosensitivity” value is “up to six weeks”.
